Assay results reported in ChEMBL document CHEMBL1201862, “PubChem BioAssay data set” (2004).
Activity calls are given as the source filed them.

Assays:
[1] = biological target: Mitogen-activated protein kinase 10 (Homo sapiens, UniProt P53779); experiment: Dose response biochemical screening assay for inhibitors of c-Jun N-Terminal Kinase 3 (JNK3). [Related pubchem assays: 746 ]
Ion channel NompC = Ion channel NompC (Danio rerio, UniProt Q7T1G6); experiment: Fluorescence counterscreen assay for TRPML3 agonists: dose response cell-based high-throughput screening assay to identify agonists of the transient receptor potential channel N1 (TRPN1). [Related pubchem assays: 1526, 1424, 1448 ]; format: functional
Ion channel NompC, sequence (Q7T1G6 whole entry): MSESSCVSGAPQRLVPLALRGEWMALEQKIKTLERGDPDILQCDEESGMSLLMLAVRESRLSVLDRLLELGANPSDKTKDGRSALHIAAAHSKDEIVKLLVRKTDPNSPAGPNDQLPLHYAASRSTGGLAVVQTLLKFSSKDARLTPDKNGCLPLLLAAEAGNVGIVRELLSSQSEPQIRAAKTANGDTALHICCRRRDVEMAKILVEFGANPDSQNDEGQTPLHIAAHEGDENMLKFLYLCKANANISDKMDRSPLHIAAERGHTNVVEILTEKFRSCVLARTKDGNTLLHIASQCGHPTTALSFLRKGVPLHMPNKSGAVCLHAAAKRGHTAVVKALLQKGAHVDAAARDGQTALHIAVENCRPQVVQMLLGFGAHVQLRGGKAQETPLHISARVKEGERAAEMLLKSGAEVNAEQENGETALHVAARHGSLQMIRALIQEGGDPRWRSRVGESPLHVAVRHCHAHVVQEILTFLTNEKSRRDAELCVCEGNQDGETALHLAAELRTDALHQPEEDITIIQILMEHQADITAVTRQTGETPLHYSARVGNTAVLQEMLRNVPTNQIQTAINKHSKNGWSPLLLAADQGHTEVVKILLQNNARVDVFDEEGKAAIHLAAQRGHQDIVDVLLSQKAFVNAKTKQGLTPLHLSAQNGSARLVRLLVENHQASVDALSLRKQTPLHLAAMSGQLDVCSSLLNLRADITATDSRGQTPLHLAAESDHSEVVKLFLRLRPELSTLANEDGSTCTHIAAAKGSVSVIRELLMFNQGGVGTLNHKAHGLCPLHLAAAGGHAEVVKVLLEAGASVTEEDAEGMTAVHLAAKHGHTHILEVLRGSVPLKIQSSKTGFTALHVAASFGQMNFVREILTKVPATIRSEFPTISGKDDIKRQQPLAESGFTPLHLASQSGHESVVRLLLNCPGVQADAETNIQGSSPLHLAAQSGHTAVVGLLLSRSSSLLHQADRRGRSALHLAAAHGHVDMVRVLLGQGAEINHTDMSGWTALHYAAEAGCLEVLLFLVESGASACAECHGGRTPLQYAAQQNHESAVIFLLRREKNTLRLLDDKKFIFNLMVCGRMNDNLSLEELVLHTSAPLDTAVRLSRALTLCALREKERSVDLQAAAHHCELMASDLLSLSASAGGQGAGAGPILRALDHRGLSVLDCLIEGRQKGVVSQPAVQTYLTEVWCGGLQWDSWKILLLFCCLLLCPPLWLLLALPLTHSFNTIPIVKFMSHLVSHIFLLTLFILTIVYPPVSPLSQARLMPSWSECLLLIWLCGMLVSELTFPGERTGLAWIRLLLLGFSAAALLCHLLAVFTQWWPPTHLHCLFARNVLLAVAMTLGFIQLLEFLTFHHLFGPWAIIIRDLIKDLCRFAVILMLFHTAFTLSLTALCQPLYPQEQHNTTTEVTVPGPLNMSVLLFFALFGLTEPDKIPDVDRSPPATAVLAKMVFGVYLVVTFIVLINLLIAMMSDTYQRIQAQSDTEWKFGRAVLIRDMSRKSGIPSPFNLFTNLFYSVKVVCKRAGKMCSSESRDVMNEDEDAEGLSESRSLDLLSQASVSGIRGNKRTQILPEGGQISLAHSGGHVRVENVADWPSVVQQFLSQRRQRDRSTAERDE

Mucolipin-3 = biological target: T1, Mucolipin-3 (Homo sapiens, UniProt Q8TDD5); experiment: Dose response cell-based high-throughput screening assay for agonists of the transient receptor potential channel ML3 (TRPML3). [Related pubchem assays: 1526, 1424, 1448 ]; format: functional
T1 sequence (Q8TDD5 whole entry): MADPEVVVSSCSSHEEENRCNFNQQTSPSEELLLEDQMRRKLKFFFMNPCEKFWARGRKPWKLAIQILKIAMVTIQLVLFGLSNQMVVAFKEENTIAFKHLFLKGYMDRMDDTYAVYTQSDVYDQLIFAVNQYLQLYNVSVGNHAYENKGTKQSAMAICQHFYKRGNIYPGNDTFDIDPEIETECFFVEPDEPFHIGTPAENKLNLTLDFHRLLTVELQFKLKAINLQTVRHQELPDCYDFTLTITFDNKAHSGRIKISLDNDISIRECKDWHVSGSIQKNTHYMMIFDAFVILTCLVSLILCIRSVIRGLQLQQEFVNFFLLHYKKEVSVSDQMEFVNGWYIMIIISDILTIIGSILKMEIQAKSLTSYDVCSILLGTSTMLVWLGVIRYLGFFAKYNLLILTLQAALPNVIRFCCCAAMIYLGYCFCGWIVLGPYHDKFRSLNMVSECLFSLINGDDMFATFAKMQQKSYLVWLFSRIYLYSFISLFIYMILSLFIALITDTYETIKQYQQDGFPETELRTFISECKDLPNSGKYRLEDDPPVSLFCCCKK

[2] = biological target: T2, Histone-lysine N-methyltransferase NSD2 (Homo sapiens, UniProt O96028); format: biochemical
T2 sequence (O96028 whole entry): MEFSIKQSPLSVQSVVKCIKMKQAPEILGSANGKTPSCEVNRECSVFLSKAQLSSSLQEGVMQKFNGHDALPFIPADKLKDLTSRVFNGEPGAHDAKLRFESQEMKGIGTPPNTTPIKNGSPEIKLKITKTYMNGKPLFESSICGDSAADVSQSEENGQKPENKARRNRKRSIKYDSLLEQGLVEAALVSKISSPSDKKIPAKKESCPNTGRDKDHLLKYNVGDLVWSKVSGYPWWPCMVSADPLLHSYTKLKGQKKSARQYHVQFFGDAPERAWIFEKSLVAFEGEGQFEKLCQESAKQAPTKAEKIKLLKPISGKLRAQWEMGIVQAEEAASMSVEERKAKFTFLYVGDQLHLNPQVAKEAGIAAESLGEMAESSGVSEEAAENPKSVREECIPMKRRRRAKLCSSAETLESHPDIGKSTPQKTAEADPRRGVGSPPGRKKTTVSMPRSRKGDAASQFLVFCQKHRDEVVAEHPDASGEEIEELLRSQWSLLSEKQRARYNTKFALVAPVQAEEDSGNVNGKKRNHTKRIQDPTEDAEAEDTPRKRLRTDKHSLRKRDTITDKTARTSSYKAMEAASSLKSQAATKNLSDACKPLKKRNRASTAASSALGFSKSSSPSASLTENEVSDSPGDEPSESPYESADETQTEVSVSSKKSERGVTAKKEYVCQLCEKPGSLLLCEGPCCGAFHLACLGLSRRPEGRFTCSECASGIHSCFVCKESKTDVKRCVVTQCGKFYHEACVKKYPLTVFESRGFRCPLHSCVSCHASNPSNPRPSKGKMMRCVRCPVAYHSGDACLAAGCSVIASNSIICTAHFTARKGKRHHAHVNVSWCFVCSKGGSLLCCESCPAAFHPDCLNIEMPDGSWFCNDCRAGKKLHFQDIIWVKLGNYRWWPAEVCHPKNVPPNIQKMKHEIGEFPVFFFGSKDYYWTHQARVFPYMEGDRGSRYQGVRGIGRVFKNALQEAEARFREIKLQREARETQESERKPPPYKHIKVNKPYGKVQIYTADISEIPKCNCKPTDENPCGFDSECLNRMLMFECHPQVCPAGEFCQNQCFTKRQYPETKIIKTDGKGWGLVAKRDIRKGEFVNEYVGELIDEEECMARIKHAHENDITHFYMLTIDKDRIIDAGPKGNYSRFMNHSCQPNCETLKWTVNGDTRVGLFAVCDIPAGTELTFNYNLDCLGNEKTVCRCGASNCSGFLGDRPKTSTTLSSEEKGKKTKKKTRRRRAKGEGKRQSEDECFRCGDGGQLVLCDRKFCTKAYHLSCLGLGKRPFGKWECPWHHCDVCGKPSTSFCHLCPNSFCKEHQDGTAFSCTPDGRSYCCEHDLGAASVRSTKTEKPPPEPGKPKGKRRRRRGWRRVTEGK

Nonstructural protein 1 = Nonstructural protein 1 (Influenza A virus, UniProt Q194T2); format: functional, Influenza A virus (A/California/07/2009(H1N1))
Nonstructural protein 1, sequence (Q194T2 whole entry): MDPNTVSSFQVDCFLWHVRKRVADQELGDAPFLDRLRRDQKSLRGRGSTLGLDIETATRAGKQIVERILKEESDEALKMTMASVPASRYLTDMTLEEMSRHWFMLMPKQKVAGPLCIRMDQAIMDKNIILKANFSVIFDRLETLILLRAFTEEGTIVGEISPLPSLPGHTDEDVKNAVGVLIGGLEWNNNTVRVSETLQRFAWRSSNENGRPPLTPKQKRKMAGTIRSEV

NS3 = NS3 (Hepatitis C virus, UniProt A3EZJ3); experiment: PubChem AID 2173; set-up: species or system Hepacivirus hominis
NS3, sequence (A3EZJ3 whole entry): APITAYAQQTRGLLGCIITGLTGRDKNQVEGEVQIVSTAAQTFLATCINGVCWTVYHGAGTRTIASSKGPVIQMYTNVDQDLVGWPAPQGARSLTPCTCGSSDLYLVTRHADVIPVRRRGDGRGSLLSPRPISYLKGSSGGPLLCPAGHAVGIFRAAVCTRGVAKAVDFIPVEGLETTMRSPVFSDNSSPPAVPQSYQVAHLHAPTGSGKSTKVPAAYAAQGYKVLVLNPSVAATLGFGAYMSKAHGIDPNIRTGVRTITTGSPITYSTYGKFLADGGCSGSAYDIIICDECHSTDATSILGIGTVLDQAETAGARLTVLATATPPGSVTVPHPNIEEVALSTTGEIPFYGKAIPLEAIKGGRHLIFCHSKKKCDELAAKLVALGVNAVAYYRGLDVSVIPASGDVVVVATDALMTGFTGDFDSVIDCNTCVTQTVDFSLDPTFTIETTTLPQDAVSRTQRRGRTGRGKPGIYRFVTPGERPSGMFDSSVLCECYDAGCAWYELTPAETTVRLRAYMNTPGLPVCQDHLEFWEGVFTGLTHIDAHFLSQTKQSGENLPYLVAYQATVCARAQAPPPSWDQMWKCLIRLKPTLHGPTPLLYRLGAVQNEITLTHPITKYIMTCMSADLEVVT

[3] = biological target: T3, Short transient receptor potential channel 4 (Mus musculus, UniProt Q9QUQ5); experiment: mouse TRPC4 channel inhibitors, dose response, cell-based, HEK293 TRPC4/mu-opioid, Fluo-4 calcium (AID 434942); format: functional;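 also: potency of inhibitors blocking the TRPC4 calcium response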
T3 sequence (Q9QUQ5 whole entry): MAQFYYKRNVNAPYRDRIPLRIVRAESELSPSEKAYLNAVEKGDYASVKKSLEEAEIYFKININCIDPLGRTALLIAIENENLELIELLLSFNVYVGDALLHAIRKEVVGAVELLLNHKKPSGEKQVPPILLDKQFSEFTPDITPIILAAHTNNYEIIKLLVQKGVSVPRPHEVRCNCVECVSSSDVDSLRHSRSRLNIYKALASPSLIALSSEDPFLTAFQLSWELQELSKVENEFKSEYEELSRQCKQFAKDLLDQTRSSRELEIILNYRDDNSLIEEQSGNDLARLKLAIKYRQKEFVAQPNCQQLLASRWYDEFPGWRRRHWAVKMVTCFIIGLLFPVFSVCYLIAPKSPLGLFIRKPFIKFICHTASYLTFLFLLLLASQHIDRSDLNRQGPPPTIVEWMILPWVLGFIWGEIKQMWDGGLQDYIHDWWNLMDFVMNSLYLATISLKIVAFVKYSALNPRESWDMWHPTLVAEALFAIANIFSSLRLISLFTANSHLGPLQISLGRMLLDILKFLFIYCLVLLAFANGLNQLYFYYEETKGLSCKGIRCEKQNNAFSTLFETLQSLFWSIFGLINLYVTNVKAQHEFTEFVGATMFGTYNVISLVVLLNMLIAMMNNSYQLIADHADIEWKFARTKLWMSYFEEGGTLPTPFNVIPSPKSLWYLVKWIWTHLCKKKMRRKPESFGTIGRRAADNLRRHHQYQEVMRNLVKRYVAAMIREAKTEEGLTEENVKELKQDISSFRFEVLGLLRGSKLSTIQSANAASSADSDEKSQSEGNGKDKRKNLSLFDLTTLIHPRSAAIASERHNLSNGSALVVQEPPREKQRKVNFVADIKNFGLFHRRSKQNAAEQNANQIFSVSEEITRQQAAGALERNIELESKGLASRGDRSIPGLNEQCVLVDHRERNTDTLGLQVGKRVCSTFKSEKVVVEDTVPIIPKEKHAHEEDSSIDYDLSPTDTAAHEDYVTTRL

[4] = biological target: T4, Replicative DNA helicase DnaB (Mycobacterium tuberculosis, UniProt P9WMR3); experiment: DnaB intein splicing inhibitors, dose response, biochemical, cell-free fluorescence (AID 449749); format: functional
T4 sequence (P9WMR3 whole entry): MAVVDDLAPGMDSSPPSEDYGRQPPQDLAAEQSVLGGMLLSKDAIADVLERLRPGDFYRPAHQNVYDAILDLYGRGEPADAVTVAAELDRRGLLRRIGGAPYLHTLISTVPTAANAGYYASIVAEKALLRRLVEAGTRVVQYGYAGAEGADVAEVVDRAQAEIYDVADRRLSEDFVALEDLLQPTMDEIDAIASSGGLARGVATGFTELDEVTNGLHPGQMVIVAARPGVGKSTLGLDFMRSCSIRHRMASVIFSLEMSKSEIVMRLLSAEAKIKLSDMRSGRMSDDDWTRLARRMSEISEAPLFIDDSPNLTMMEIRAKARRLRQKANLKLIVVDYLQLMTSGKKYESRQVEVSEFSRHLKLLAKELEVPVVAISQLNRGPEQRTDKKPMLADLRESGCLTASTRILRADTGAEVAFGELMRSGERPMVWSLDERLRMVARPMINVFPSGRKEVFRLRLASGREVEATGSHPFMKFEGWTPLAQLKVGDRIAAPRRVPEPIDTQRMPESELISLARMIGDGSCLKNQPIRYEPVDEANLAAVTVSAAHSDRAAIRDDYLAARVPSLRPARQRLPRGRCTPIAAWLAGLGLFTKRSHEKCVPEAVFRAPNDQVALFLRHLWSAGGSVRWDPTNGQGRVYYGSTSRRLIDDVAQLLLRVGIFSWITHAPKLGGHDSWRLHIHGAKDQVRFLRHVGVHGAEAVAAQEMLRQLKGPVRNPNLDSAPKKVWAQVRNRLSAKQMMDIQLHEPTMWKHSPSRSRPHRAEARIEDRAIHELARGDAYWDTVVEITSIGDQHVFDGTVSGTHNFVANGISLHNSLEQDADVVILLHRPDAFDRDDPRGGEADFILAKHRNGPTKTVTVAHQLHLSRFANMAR

[5] = growth suppression of beta-catenin-knockout colon cells, dose response, cell-based, HCT116, human colon tumor (AID 1045); format: functional;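 also: HCT116 colon tumor cells with beta catenin knocked out; cells exposed to compound for 60 hours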
[6] = biological target: T5, Glutathione-S-transferase (Schistosoma japonicum, UniProt Q26513); experiment: biotin-GST/anti-GST TR-FRET signal inhibitors, dose response, artefact control for Vif-APOBEC3G degradation inhibitor project, biochemical (AID 1117362); format: functional
T5 sequence (Q26513 whole entry): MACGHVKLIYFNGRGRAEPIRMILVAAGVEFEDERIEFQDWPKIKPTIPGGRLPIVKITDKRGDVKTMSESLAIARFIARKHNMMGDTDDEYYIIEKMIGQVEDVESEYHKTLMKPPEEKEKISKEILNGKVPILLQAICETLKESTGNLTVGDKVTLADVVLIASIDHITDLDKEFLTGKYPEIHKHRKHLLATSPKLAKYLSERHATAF

[7] = growth suppression of PTEN-null colon cells, dose response, cell-based, HCT116 PTEN knockout (AID 1047); format: functional;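 also: HCT116 colon tumor cells with PTEN knocked out; cells exposed to compound for 60 hours before readout; potency for loss of cell viability measured by luminescence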
Protein RecA = biological target: T6, Protein RecA (Mycobacterium tuberculosis, UniProt P9WHJ3); experiment: Fluorescence Cell-Free Homogeneous Dose Retest to Identify Inhibitors of RecA-Intein Splicing Activity. [Related pubchem assays (depositor defined):AID2097, AID2223, AID489010, AID492950]; format: functional
T6 sequence (P9WHJ3 whole entry): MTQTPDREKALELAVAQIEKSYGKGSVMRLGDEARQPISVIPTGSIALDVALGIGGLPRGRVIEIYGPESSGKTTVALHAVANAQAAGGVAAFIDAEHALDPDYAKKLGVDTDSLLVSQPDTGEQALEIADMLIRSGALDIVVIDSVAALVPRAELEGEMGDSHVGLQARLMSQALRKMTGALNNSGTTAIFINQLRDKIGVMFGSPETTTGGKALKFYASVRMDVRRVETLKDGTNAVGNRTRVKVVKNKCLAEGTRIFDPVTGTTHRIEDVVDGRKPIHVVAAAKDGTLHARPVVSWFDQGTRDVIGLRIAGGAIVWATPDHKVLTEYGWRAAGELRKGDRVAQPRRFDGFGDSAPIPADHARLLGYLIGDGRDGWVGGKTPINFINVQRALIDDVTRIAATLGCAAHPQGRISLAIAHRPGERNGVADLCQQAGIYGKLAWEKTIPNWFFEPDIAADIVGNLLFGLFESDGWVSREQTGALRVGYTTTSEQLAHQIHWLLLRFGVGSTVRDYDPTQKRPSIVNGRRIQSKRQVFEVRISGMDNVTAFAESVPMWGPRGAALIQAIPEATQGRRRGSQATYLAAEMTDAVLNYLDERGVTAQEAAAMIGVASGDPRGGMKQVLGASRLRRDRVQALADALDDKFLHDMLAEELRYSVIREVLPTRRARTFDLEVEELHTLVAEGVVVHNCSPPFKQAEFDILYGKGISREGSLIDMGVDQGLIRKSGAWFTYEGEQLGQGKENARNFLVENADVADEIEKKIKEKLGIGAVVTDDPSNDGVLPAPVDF

[8] = THP-1 cell cytotoxicity, dose response, cytotoxicity control for Vif-APOBEC3G degradation inhibitor project, THP-1 cells (AID 1117359); format: functional; details: Human immunodeficiency virus 1, THP-1

Mitogen-activated protein kinase 10, sequence (P53779 whole entry): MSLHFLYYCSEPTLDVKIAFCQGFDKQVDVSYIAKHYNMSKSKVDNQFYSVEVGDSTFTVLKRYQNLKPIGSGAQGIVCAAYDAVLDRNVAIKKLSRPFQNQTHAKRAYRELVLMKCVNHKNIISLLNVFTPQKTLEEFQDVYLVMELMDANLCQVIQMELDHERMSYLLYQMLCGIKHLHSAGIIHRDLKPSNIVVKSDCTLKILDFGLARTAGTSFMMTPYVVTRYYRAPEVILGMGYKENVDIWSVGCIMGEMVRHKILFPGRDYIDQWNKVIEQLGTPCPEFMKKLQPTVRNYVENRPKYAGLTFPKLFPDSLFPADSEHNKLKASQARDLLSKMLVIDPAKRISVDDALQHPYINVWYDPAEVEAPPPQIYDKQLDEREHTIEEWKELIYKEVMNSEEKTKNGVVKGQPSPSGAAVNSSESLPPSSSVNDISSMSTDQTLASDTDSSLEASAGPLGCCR

SMILES: CC1CCc2nc(N)c(C#N)c(-c3ccncc3)c2C1 (centres undefined)
- IC50 [1]: > 93.1 µM (not active)

SMILES: O=C(Nc1nc(-c2ccc3ccccc3c2)cs1)C1CCN(S(=O)(=O)c2cccs2)CC1
- EC50 (Ion channel NompC): > 29.9 µM (not active)
- EC50 (Mucolipin-3): 14.2 µM (not active)

SMILES: O=S(=O)(c1ccc(Cl)cc1Br)N1CCCCC1
- EC50 (Ion channel NompC): > 29.9 µM (not active)
- EC50 (Mucolipin-3): > 29.9 µM (not active)

SMILES: Cc1[nH]c(=O)[nH]c1C(=O)CCCCC(=O)OCC(=O)Nc1ccccn1
- IC50 [1]: > 93.1 µM (not active)
- AC50 [2]: 1.26 µM (active)
- IC50 (Nonstructural protein 1): 1.98 µM (active)

SMILES: CCCOc1ccc(-c2nc(SCc3ccccc3)[nH]c(=O)c2C#N)cc1OC
- AC50 [2]: > 20 µM (inactive)
- IC50 (NS3): 1.72 µM (active)
- EC50 [3]: 4.73 µM (active)

SMILES: CC[n+]1c(/C=C2\C=C(C)CC(C)(C)C2)sc2ccccc21
- AC50 [4]: > 380 µM (inactive)
- EC50 [5]: 9.81 µM (active)
- IC50 [6]: > 100 µM (active)
- EC50 [7]: 11.7 µM (active)
- EC50 (Protein RecA): 27.3 µM (active)
- CC50 [8]: 4.22 µM (active)

SMILES: COc1ccc(S(=O)(=O)NC2CCCC2)c(Cl)c1Cl
- EC50 (Ion channel NompC): > 29.9 µM (not active)
- EC50 (Mucolipin-3): 3.55 µM (active)
